The values below come from patent publication US20240091279A1, “COMBINATION THERAPY FOR INFLAMMATORY DISEASES” (University of lowa Research Foundation, priority 2022, published 2024).

Experiment [1] concerns experimental autoimmune encephalomyelitis (EAE). Particulars: earlier published studies, cited from earlier work.
A further experiment concerns mouse model of MS. Briefly: Mouse model of MS, Example I. It is filed as in vivo, mice. Particulars: versus diet lacking phytoestrogen.
The conditions of experiment [2]: versus the original isoflavones; cited from earlier work.

Read-outs that look alike come from different tables or passages of the source.

As for Parabacteroides distasonis, the EAE disease entry in experiment [1] is listed as “sufficient to ameliorate EAE”.
For `Oc1ccc([C@H]2COc3cc(O)ccc3C2)cc1` [S-equol], in the experiment with mouse model of MS, the disease severity entry was “mimic some of the disease protective function”. The values for the EAE disease entry in experiment [1] and in experiment [1] (listed as equol) were “sufficient to ameliorate EAE” and “protect”, respectively. The estrogenic activity result in experiment [2] was “significantly higher estrogenic activity”.
